Tests used:
[1] = Half life in rat at 1 mg/kg, iv; format: ADME, organism-based; set-up: dose 1 mg/kg, route intravenous; conditions: in vivo
[2] = AUC (0 to infinity) in rat at 5 mg/kg, po; format: ADME, organism-based; set-up: time infinity, dose 5 mg/kg, route oral; conditions: plasma
[3] = Drug level in tumor of human GTL16 cells xenografted in mouse assessed as tumor regression at 100 mg/kg, po qd for 5 days 2 to 10 hrs after last dose; format: ADME, organism-based, Neoplasm; set-up: dose 100 mg/kg, route oral; conditions: in vivo
[4] = AUC (0 to infinity) in rat at 1 mg/kg, iv; format: ADME, organism-based; set-up: time infinity, dose 1 mg/kg, route intravenous; conditions: plasma
[5] = Clearance in rat at 1 mg/kg, iv; format: ADME, organism-based; set-up: dose 1 mg/kg, route intravenous; conditions: in vivo
[6] = Oral bioavailability in rat at 5 mg/kg; format: ADME, organism-based; conditions: in vivo
[7] = Drug level in tumor of human GTL16 cells xenografted in mouse assessed as tumor regression at 100 mg/kg, po qd for 5 days 10 hrs after last dose; format: ADME, organism-based, Neoplasm; set-up: dose 100 mg/kg, route oral; conditions: read-out: Drug uptake

Structure (SMILES) | half-life [1] [min] | AUC(0-inf) [2] [ng·h/mL] | Drug uptake [3] [ng/g] | AUC(0-inf) [4] [ng·h/mL] | clearance [5] [mL/min/kg] | bioavailability [6] [%] | concentration at 10 h [7] [ng/g]
CCOC(=O)N1CCCOc2cc(Nc3ncc(Cl)c(Nc4c(F)cccc4C(=O)NC)n3)ccc21 | 72 | 913 | 125 | 1220 | 15.3 | 15 | 
CCN1CCCOc2cc(Nc3ncc(Cl)c(Nc4c(F)cccc4C(=O)NC)n3)ccc21 |  | < 100 |  |  |  |  | 
CNC(=O)c1cccc(F)c1Nc1nc(Nc2ccc3c(c2)OCCCN3CCN2CCCC2)ncc1Cl |  | < 100 |  |  |  |  | 
CNC(=O)c1cccc(F)c1Nc1nc(Nc2ccc3c(c2)OCCCN3)ncc1Cl | 18 |  |  |  | 34 |  | > 200
